Reference: US9617262B2, “Antibacterial cyclopental[C]pyrrole substituted 3,4-dihydro-1H-[1,8]naphthyridinones” (Janssen Sciences Ireland UC, priority 2011, dated 2017)
Values after ≈ are worked out from the molar mass of the structure shown.

Assays:
[1] = target: S. aureus ATCC 29213 FabI (Staphylococcus aureus (strain MRSA252), UniProt Q6GI75); assay: Staphylococcus aureus FabI enzyme inhibition assay; type: biochemical; conditions: pH 6.5, 30 minutes at room temperature
Procedure: FabI enzyme inhibition assays were carried out in half-area, 384-well microtitre plates. Compounds were evaluated in 40-μl assay mixtures containing 100 mM NaADA, pH 6.5 (ADA=N-[2-acetamido]-2iminodiacetic acid), 250 μM crotonoyl-CoA, 625 μM NADH and 50 μg/ml S. aureus ATCC 29213 FabI. Inhibitors were typically varied over the range of 50 to 0.39 μM. The reaction mixtures were incubated for 30 minutes at room temperature and the reaction was stopped by adding 200 mM Tris buffer (pH 9.0) to create a pH-shift. The consumption of NADH was monitored by measuring the change in absorbance at […]. By comparing sample readings to those of negative (absence of compound) and positive (absence of enzyme) controls, the percent inhibition of enzymatic activity of the compounds was determined. A best-fit curve is fitted by a minimum of squares method. From this an IC50-value (expressed in μg/ml), resulting in 50% inhibition of enzymatic activity, was obtained.

[2] = tested on: Staphylococcus aureus ATCC 29213; assay: Antibacterial susceptibility testing: IC90 determination (STA); type: cell-based; conditions: STA ATCC 29213, 90% inhibitory concentration for bacterial growth
Procedure: (§1) The following bacteria were used: Staphylococcus aureus ATCC 29213, methicillin-resistant Staphylococcus aureus (MRSA) ATCC 700788 and Escherichia coli ATCC 35218. The bacteria used in this study were grown overnight in flasks containing 100 ml Mueller-Hinton broth (Difco cat. nr. 0757-17) in sterile de-ionized water, with shaking, at 37° C. Stocks were store at −70° C. until use.
(§2) Bacteria were incubated on a tryptic soy agar plate containing 5% sheep blood (Becton Dickinson cat. nr. 254053) for 18-24 hours at 35° C. in aerobic conditions (first passage). For the second passage, fresh Mueller-Hinton broth is inoculated with 5-10 colonies and grown overnight at 35° C. until turbidity (reaching log-phase) in aerobic conditions is reached. The bacterial suspension is then adjusted to 0.5 McFarland density and further diluted 1:100 in Mueller Hinton broth medium. This is used as inoculum.
(§3) MIC assays were performed by the broth microdilution method in a 96-well format (flat-bottom microtitre plates) with a final volume of 0.1 ml Mueller Hinton broth containing two-fold serial dilutions of compounds and inoculated with 5×10^5 CFU/ml of bacteria (standard inoculum size according to CLSI guidelines). Inhibitors are typically varied over the range of 63 to 0.49 μM. The final DMSO concentration in the assay was 1.25% (maximum tolerable DMSO concentration=6%). In the assays where the effect of human serum on the activity of the compounds against S. aureus was tested, human serum was added at a final concentration of 10%. The plates were incubated at 35° C. for 16-20 hours. At the end of incubation the bacterial growth was quantified fluorometrically. For this, resazurin was added to all wells and the plates were re-incubated. The incubation time is dependent on the type of bacteria. A change in color from blue to pink indicated the growth of bacteria. The fluorescence was read in computer-controlled fluorometer (Fluoroskan Ascent FL, Labsystems) at an excitation wavelength 540 nm and an emission wavelength of 590 nm. The % growth inhibition achieved by the compounds was calculated according to standard methods. The IC90 (expressed in μg/ml) was defined as the 90% inhibitory concentration for bacterial growth. A panel of reference compounds were simultaneously tested for QC approval.

[3] = tested on: Human HelaM cells; assay: Cytotoxicity MTT assay (TOX HELAM); type: cell-based; conditions: 72 hours
Procedure: Cytotoxicity of the compounds was evaluated using the MTT assay. Human HelaM cells grown in 96-well plates were exposed to serial dilutions of the tested compounds (final volume of 0.2 ml) and incubated for 72 hours at 37° C. and 5% CO2. Inhibitors are typically varied over the range of 25 to 0.8 μM. The final DMSO concentration in the assay is 0.5%. MTT (3-(4,5-Dimethylthiazol-2-yl)-2,5-diphenyltetrazolium bromide, a tetrazole) was added and reduced to purple formazan only in living cells. Solubilization of the formazan crystals was achieved by adding 100 μl 2-propanol. Cell viability was determined by measuring the absorbance of the reduced formazan, giving a purple color, at 540 nm and 690 nm. The absorbance measured at 690 nm was automatically subtracted from the absorbance at 540 nm, to eliminate the effects of non-specific absorption. The percent cytotoxicity achieved by the compounds was calculated according to standard methods. Cytotoxicity is reported as CC50, the concentration that causes a 50% reduction in cell viability.
The results are depicted in the table D2 below (TOX HELAM).

[4] = tested on: S. aureus; assay: Antibacterial susceptibility testing: IC90 determination with 10% human serum (STA + 10% HS); type: cell-based, Staphylococcus aureus; conditions: human serum at a final concentration of 10%
Procedure: as §1, §2, §3
The results are depicted in the table D2 below (STA+10% HS).

[5] = tested on: Staphylococcus aureus ATCC 29213; reference strain MSSA; assay: Antimicrobial spectrum, broth microdilution MIC; type: cell-based; conditions: S. aureus ATCC 29213
Procedure: (§4) Minimum Inhibitory Concentrations (MICs) were determined in accordance with the Clinical and Laboratory Standards Institute (CLSI) methodology against aerobic bacteria (CLSI M07-A8) (see Clinical and Laboratory Standards Institute. 2009. Methods for dilution antimicrobial susceptibility tests for bacteria that grow aerobically. CLSI document M07-A8, Vol. 29, No. 2.) by the broth microdilution method with cation-adjusted Mueller-Hinton broth (CA-MHB) medium for the majority of organisms, except for Haemophilus influenza, where Haemophilis test medium (HTM) broth was used. Descriptions of the individual organisms can be found in the table. Where possible, ATCC standard strains were tested.
(§5) The inoculum density for the susceptibility testing was standardized to give a final inoculum of approximately 5×10^5 CFU/mL.
(§6) Stock solutions of the compounds were prepared in DMSO at concentrations of 1 mg/mL. Linezolid was prepared in DMSO at a concentration of 2 mg/mL. Stock solutions of all compounds were diluted into CA-MHB to give a range of two-fold dilutions, depending upon the sensitivity of the organism being tested.

[6] = tested on: Escherichia coli ATCC 25922; reference strain; assay: Antimicrobial spectrum, broth microdilution MIC; type: cell-based; conditions: E. coli ATCC 25922
Procedure: as §4, §5, §6

[7] = tested on: Escherichia coli Tol C mutant; assay: Antimicrobial spectrum, broth microdilution MIC; type: cell-based; conditions: E. coli tolC mutant
Procedure: as §4, §5, §6

[8] = tested on: Staphylococcus aureus ATCC 43300; reference strain MRSA; assay: Antimicrobial spectrum, broth microdilution MIC; type: cell-based; conditions: S. aureus ATCC 43300
Procedure: as §4, §5, §6

[9] = tested on: Haemophilus influenzae ATCC 49247; reference strain; assay: Antimicrobial spectrum, broth microdilution MIC; type: cell-based; conditions: H. influenza ATCC 49247
Procedure: as §4, §5, §6

[10] = In vivo pharmacokinetic and oral bioavailability; conditions: male Swiss mice
Procedure: The in vivo pharmacokinetics and oral bioavailability of the compound of the examples was/is investigated in male Swiss mice (fed) following single intravenous (i.v.) bolus and oral (p.o.) administration. For the i.v. and p.o. solution formulations, the compound was/is dissolved in a 20% HP-β-CD solution. The pH of the formulations was/is around pH 4. All i.v. formulations were isotonic.

Compound | FabI IC50 [1] [µg/mL] | STA (361.159) IC90 [2] [µg/mL] | TOX HELAM (222.125) CC50 [3] [µg/mL] | STA + 10% HS (361.169) IC90 [4] [µg/mL] | further results
O=C1CCc2cc(/C=C/C(=O)N3CC4C=C(c5ccco5)CC4C3)cnc2N1 (stereo not shown) [compound 19] | ~0.62 | 0.18 | >9.43 | 0.12 | 
O=C1CCc2cc(/C=C/C(=O)N3CC4C=C(c5ccoc5)CC4C3)cnc2N1 (stereo not shown) [compound 22] | 0.58 | 0.23 | >9.43 | 0.25 | MIC90 [5]: 0.06 µg/mL (≈ 0.16 µM); MIC90 [6]: >8 µg/mL; MIC90 [7]: 1 µg/mL (≈ 2.66 µM); MIC90 [8]: 0.125 µg/mL (≈ 0.333 µM); MIC90 [9]: 4 µg/mL (≈ 10.7 µM)
O=C1CCc2cc(/C=C/C(=O)N3C[C@@H]4CN(c5ccccc5)C[C@@H]4C3)cnc2N1 [compound 2] | 0.78 | 1.02 | >19.4696 | 1.09 | MIC90 [5]: 0.25 µg/mL (≈ 0.644 µM); MIC90 [6]: >8 µg/mL; MIC90 [7]: 0.25 µg/mL (≈ 0.644 µM); MIC90 [8]: 0.5 µg/mL (≈ 1.29 µM); MIC90 [9]: >8 µg/mL
Cc1ccccc1N1C[C@H]2CN(C(=O)/C=C/c3cnc4c(c3)CCC(=O)N4)C[C@H]2C1 [compound 17] | 0.38 | 0.37 | >10.1103 | 0.38 | 
O=C1CCc2cc(/C=C/C(=O)N3CC4C=C(c5cccs5)CC4C3)cnc2N1 (stereo not shown) [compound 3] | 0.29 | 0.03 | >3.256 | 0.06 | 
O=C1CCc2cc(/C=C/C(=O)N3CC4C=C(c5ccccc5Cl)CC4C3)cnc2N1 (stereo not shown) [compound 9] | 0.75 | 0.33 | 4.77 | 0.69 | 
O=C1CCc2cc(/C=C/C(=O)N3C[C@@H]4CN(c5ccccc5Cl)C[C@@H]4C3)cnc2N1 [compound 18] | 0.44 | 0.21 | >10.6233 | 0.37 | 
O=C1CCc2cc(/C=C/C(=O)N3CC4C=C(c5ccncc5)CC4C3)cnc2N1 (stereo not shown) [compound 12] | 0.44 | 0.33 | >9.707 | 0.53 | AUC0-inf ([10]; i.v. 2.5 mg/kg): 1124 ng·h/mL; Half life (t1/2) ([10]; i.v. 2.5 mg/kg): 1.1 h; Plasma clearance Cl ([10]; i.v. 2.5 mg/kg): 36.7 mL/min/kg; Vdz ([10]; i.v. 2.5 mg/kg): 3.7 L/kg; C0 ([10]; i.v. 2.5 mg/kg, 20% HP-β-CD solution): 2333 ng/mL; Oral bioavailability ([10]; p.o. 10 mg/kg vs i.v. 2.5 mg/kg): 21%; AUC0-last ([10]; p.o. 10 mg/kg): 914 ng·h/mL; Cmax ([10]; p.o. 10 mg/kg): 275 ng/mL; Tmax ([10]; p.o. 10 mg/kg): 1.0 h; MIC90 [5]: 0.125 µg/mL (≈ 0.323 µM); MIC90 [6]: >8 µg/mL; MIC90 [7]: 0.25 µg/mL (≈ 0.647 µM); MIC90 [8]: 0.125 µg/mL (≈ 0.323 µM); MIC90 [9]: 1 µg/mL (≈ 2.59 µM)
COc1ccccc1N1C[C@H]2CN(C(=O)/C=C/c3cnc4c(c3)CCC(=O)N4)C[C@H]2C1 [compound 8] | 0.50 | 1.15 | >10.5122 | 1.52 | 
O=C1CCc2cc(/C=C/C(=O)N3C[C@@H]4CN(c5nccs5)C[C@@H]4C3)cnc2N1 [compound 24] | 0.58 | 4.05 | >3.9549 | 2.44 | 
O=C1CCc2cc(/C=C/C(=O)N3C[C@H]4CC(c5ccccc5)=C[C@H]4C3)cnc2N1 (single isomer, unassigned) [compound 13] | 0.39 | 0.31 | >9.683 | 0.43 | 
N#Cc1ccccc1C1=CC2CN(C(=O)/C=C/c3cnc4c(c3)CCC(=O)N4)CC2C1 (stereo not shown) [compound 23] | 0.41 | 0.67 | >10.3108 | 0.79 | 
Cn1nccc1C1=CC2CN(C(=O)/C=C/c3cnc4c(c3)CCC(=O)N4)CC2C1 (stereo not shown) [compound 15] | 0.48 | 0.74 | >9.783 | 0.72 | 
O=C1CCc2cc(/C=C/C(=O)N3CC4C=C(c5cccnc5)CC4C3)cnc2N1 (racemic) [compound 26] | 0.41 | 1.11 | >3.8646 | 1.11 | 
O=C1CCc2cc(/C=C/C(=O)N3CC4C=C(c5ccccc5F)CC4C3)cnc2N1 (stereo not shown) [compound 21] | 0.65 | 0.13 | >4.0346 | 0.29 | 
Cc1ccccc1C1=CC2CN(C(=O)/C=C/c3cnc4c(c3)CCC(=O)N4)CC2C1 (stereo not shown) [compound 11] | 0.48 | 0.37 | 6.19 | 1.76 | 
